# Data: PMC9030691, “Toxicokinetics of β-Amanitin in Mice and In Vitro Drug–Drug Interaction Potential” (Pharmaceutics, 2022)
# pIC50: −log10 of the molar value. Read-outs that look alike come from different tables or passages of the source.
# Columns and labels:
# MATE2-K = MATE2-K (Homo sapiens, UniProt Q86VL8); experiment: MATE2-K transport inhibition in HEK293-MATE2-K cells; format: in vitro ADME; design: host or cells: HEK293 (TransportoCells); conditions: 0.1 μM probe substrate, HBSS pH 7.4, β-amanitin 0.01–250 μM (methods), n = 3, read-out: IC50, MATE2-K-mediated [14C]metformin uptake
# Chain of MATE2-K (Q86VL8 1-566 isoform Q86VL8-3): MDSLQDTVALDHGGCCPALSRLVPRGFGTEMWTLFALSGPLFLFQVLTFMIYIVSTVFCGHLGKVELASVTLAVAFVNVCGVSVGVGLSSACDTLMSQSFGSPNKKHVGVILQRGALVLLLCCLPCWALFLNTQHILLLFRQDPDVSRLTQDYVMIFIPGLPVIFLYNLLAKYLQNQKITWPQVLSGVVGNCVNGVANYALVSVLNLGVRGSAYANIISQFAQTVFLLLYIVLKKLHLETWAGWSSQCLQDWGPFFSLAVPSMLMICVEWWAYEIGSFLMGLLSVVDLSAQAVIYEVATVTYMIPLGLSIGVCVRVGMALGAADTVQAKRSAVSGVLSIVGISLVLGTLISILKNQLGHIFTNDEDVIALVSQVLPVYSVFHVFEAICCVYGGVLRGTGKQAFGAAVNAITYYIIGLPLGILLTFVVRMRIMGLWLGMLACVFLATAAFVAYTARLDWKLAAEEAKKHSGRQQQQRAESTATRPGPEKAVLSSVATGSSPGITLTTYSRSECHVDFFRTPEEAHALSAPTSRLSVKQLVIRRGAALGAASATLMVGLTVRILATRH
# Procedure: β-amanitin inhibition (IC50 values) of OCT1, OCT2, MATE2-K, OAT1, OAT3, Na^+/taurocholate co-transporting polypeptide (NTCP), OATP1B1, OATP1B3, P-glycoprotein (P-gp), and breast-cancer-resistant protein (BCRP) transport activities were assessed in HEK293 cells overexpressing individual transporters (TransportoCells™, Corning), LLC-PK1-P-gp (Corning), or LLC-PK1-BCRP (obtained from Dr. A.H. Schinkel, Netherlands Cancer Institute; Amsterdam, The Netherlands), as previously reported. Each incubation mixture was prepared to a final volume of 100 μL HBSS (pH 7.4) containing 0.1 μM probe substrates ([^3H]methyl-4-phenylpyridinium for OCT1 and OCT2, [^14C]metformin for MATE2-K, [^3H]p-aminohippuric acid for OAT1, [^3H]estrone-3-sulfate for OAT3, OATP1B1 and BCRP, [^3H]taurocholate for NTCP, [^3H]17-β-D-estradiol-glucuronide for OATP1B3, [^3H]digoxin for P-gp) and various concentrations of β-amanitin (0.01–250 μM), as previously described.
# CYP1A2 = molecular target: T1, CYP1A2 (Homo sapiens, UniProt P05177); experiment: CYP1A2 inhibition in human liver microsomes; format: in vitro ADME; conditions: ultrapooled human liver microsomes 0.2 mg/mL, 50 μM phenacetin, β-amanitin 0.1–100 μM, pH 7.4, 37 °C, 15 min, LC-MS/MS, n = 3, read-out: IC50, CYP1A2 phenacetin O-deethylase
# T1 construct: from tissue; host or cells: ultrapooled human liver microsomes
# T1 sequence (P05177 1-516): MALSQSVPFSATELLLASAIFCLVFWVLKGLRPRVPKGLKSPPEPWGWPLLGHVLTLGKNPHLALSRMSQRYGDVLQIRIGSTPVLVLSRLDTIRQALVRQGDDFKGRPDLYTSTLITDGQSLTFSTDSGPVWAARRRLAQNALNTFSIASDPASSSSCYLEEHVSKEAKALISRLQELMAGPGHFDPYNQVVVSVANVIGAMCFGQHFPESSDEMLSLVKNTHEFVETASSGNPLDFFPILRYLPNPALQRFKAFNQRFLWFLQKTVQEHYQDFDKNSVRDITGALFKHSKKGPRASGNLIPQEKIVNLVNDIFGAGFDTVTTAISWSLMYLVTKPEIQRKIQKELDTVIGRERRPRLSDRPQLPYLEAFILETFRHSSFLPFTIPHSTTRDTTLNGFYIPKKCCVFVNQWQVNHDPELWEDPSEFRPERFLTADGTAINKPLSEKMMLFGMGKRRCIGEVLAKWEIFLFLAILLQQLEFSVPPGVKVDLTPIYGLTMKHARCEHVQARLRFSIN
# Procedure: (§1) β-amanitin inhibition (IC50 values) of CYP1A2, CYP2A6, CYP2B6, CYP2C8, CYP2C9, CYP2C19, CYP2D6, and CYP3A4 enzyme activities in HLMs were evaluated using LC-MS/MS and CYP substrates as previously described. Each incubation mixture was made up to a volume of 100 μL including HLMs (0.2 mg/mL), 50 mM potassium phosphate buffer (pH 7.4), 1.0 mM NADPH, 10 mM magnesium chloride, various concentrations of β-amanitin (0.1–100 μM), a cocktail of seven CYP probe substrates (50 μM phenacetin for CYP1A2, 2.5 μM coumarin for CYP2A6, 2 μM amodiaquine for CYP2C8, 10 μM diclofenac for CYP2C9, 100 μM [S]-mephenytoin for CYP2C19, 5 μM bufuralol for CYP2D6, and 2.5 μM midazolam for CYP3A4 in acetonitrile), or 50 μM bupropion for CYP2B6. The reactions were initiated with NADPH followed by incubation in a shaking water bath at 37 °C for 15 min with or without 30 min preincubation with NADPH. Reactions were stopped with 50 μL of ice-cold methanol containing ^13C2, ^15N-acetaminophen and d9-1′-hydroxybufuralol (ISs). Incubation mixtures were centrifuged at 13,000× g for 8 min at 4 °C. An aliquot (5 μL) of the supernatant from the reaction mixture was analyzed by the previous LC-MS/MS method.
# CYP2C9 = molecular target: T2, CYP2C9 (Homo sapiens, UniProt P11712); experiment: CYP2C9 inhibition in human liver microsomes; format: in vitro ADME; conditions: ultrapooled human liver microsomes 0.2 mg/mL, 10 μM diclofenac, β-amanitin 0.1–100 μM, pH 7.4, 37 °C, 15 min, LC-MS/MS, n = 3, read-out: IC50, CYP2C9 diclofenac 4′-hydroxylase
# T2 construct: from tissue; host or cells: ultrapooled human liver microsomes
# T2 sequence (P11712 whole entry): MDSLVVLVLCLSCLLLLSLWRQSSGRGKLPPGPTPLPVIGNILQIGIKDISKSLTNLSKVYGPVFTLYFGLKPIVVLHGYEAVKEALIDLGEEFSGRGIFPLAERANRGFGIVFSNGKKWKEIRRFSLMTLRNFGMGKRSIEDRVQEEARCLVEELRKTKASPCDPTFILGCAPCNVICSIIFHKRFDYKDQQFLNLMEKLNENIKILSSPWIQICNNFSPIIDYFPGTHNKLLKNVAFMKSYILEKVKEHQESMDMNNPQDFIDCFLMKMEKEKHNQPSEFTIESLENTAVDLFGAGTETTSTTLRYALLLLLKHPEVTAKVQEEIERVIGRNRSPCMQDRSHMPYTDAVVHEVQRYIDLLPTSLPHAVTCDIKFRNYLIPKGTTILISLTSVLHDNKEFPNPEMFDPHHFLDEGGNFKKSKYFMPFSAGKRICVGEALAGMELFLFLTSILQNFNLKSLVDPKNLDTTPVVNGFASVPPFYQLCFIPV
# Procedure: as §1
# CYP2C19 = molecular target: T3, CYP2C19 (Homo sapiens, UniProt P33261); experiment: CYP2C19 inhibition in human liver microsomes; format: in vitro ADME; conditions: ultrapooled human liver microsomes 0.2 mg/mL, 100 μM [S]-mephenytoin, β-amanitin 0.1–100 μM, pH 7.4, 37 °C, 15 min, LC-MS/MS, n = 3, read-out: IC50, CYP2C19 [S]-mephenytoin 4′-hydroxylase
# T3 construct: from tissue; host or cells: ultrapooled human liver microsomes
# T3 sequence (P33261 whole entry): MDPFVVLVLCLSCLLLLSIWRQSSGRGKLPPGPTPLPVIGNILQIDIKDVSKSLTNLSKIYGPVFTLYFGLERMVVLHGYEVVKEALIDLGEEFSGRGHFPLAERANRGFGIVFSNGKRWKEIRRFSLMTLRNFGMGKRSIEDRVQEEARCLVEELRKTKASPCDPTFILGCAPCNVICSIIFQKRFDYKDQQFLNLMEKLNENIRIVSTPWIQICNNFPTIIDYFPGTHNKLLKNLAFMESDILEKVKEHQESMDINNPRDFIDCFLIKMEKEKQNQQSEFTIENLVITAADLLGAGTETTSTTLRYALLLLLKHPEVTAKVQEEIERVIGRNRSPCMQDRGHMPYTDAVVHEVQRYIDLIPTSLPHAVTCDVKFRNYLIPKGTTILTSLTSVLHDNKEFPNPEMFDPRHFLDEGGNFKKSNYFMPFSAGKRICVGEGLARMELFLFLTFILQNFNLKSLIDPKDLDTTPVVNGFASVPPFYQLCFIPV
# Procedure: as §1
# CYP2D6 = molecular target: T4, CYP2D6 (Homo sapiens, UniProt P10635); experiment: CYP2D6 inhibition in human liver microsomes; format: in vitro ADME; conditions: ultrapooled human liver microsomes 0.2 mg/mL, 5 μM bufuralol, β-amanitin 0.1–100 μM, pH 7.4, 37 °C, 15 min, LC-MS/MS, n = 3, read-out: IC50, CYP2D6 bufuralol 1′-hydroxylase
# T4 construct: from tissue; host or cells: ultrapooled human liver microsomes
# T4 sequence (P10635 whole entry): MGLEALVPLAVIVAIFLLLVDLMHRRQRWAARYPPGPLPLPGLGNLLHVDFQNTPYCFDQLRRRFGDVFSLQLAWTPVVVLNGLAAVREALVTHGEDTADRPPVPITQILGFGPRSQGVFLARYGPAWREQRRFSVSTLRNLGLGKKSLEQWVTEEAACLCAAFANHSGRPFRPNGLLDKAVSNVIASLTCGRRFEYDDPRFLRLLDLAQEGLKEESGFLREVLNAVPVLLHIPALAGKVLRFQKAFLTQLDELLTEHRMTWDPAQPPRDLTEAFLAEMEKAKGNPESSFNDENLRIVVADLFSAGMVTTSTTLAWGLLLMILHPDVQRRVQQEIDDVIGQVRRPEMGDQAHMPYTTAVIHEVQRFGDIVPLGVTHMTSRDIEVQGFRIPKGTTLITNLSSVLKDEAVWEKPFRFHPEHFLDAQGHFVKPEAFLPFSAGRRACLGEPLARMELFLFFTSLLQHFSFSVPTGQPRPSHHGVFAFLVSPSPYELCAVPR
# Procedure: as §1
# mice = conditions: intraperitoneal injection; cited from earlier work
# Text: (§2) The Amanitaceae family is responsible for nearly 95% of all fatal mushroom poisonings, and amatoxins are the primary threats to human life. The content of amatoxins varies by Amanita species, but α- and β-amanitin are the most abundant substances. […] Among amatoxins, α-amanitin i ...
# rats = conditions: intraperitoneal injection; cited from earlier work
# Text: as §2
# [1] = with 30 min NADPH preincubation
Molecule,pIC50 (MATE2-K),pIC50 (CYP1A2; [1]),pIC50 (CYP1A2; without NADPH preincubation),pIC50 (CYP2C9; [1]),pIC50 (CYP2C9; without NADPH preincubation),pIC50 (CYP2C19; [1]),pIC50 (CYP2C19; without NADPH preincubation),pIC50 (CYP2D6; [1]),pIC50 (CYP2D6; without NADPH preincubation),Lethal dose (mice),Lethal dose (rats)
CC[C@H](C)[C@@H]1NC(=O)CNC(=O)[C@@H]2Cc3c([nH]c4cc(O)ccc34)[S@+]([O-])C[C@H](NC(=O)CNC1=O)C(=O)N[C@@H](CC(=O)O)C(=O)N1C[C@H](O)C[C@H]1C(=O)N[C@@H]([C@@H](C)[C@@H](O)CO)C(=O)N2 [β-amanitin],5.68,< 4.00,< 4.00,< 4.00,< 4.00,< 4.00,< 4.00,4.15,4.12,–,–
α-amanitin [reference compound],–,–,–,–,–,–,–,–,–,0.3 to 0.6 mg/kg,4.0 mg/kg
